Measurements reported in US11000033B2, “Ketone or oxime compound, and herbicide” (NISSAN CHEMICAL CORPORATION, priority 2014, dated 2021).

Columns and labels:
Format in all cases: in vivo
[1] = test system: Echinochloa oryzacola Vasing.; assay: Test Example 1: herbicidal activity, application before weed generation in submerged conditions (symbol A); settings: application herbicide amount 320 g/ha
Summary of the method: (§1)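 Weed control was rated three weeks after treatment on a 0–5 scale, from 5% or lower up to 90% or more. Pre-emergence water-surface application of diluted emulsion at a predetermined rate was made on the day of sowing, in flooded (4 cm water) pots containing rice seedlings, kept at 25–30 °C under glass.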

[2] = test system: Monochoria vaginalis; assay: Test Example 1: herbicidal activity, application before weed generation in submerged conditions (symbol C); settings: application herbicide amount 320 g/ha
Summary of the method: as §1

[3] = test system: Monochoria vaginalis; assay: Test Example 2: herbicidal activity, application during weed generation in submerged conditions (symbol C); settings: Table 23; application herbicide amount 320 g/ha; grade 0-5 by criteria of Test Example 1
Summary of the method: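 Compound was applied as a water-diluted emulsion into the standing water of flooded pots (4 cm) once co-sown weeds reached one to two leaves. Greenhouse temperature was 25° C. to 30° C., soil was alluvial, and each species was rated visually after 3 weeks.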

[4] = test system: Echinochloa crus-galli var. crus-galli; assay: Test Example 4: herbicidal effect by soil treatment (symbol H); settings: application herbicide amount 320 g/ha
Summary of the method: (§2)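 Seeds were sown in sterilized diluvial soil, covered with about 1.5 cm of soil, and the soil surface was sprayed with a water-diluted emulsion of the compound at a predetermined rate. Plants grew in a greenhouse at 25° C. to 30° C.; effects were scored visually 3 weeks after application.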

[5] = test system: Avena fatua; assay: Test Example 4: herbicidal effect by soil treatment (symbol I); settings: application herbicide amount 320 g/ha
Summary of the method: as §2

[6] = test system: Apera spica-venti; assay: Test Example 4: herbicidal effect by soil treatment (symbol L); settings: application herbicide amount 320 g/ha
Summary of the method: as §2

[7] = test system: Abutilon theophrasti; assay: Test Example 4: herbicidal effect by soil treatment (symbol M); settings: application herbicide amount 320 g/ha
Summary of the method: as §2

[8] = test system: soybean; assay: Test Example 4: effect on crop by soil treatment (symbol d); settings: application herbicide amount 320 g/ha
Summary of the method: (§3)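 Sterilized diluvial soil, spot sowing, ~1.5 cm soil cover; greenhouse 25–30° C.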

[9] = test system: rice; assay: Test Example 4: effect on crop by soil treatment (symbol b); settings: application herbicide amount 320 g/ha
Summary of the method: as §3

[10] = test system: beet; assay: Test Example 4: effect on crop by soil treatment (symbol f); settings: application herbicide amount 320 g/ha
Summary of the method: as §3

[11] = test system: Setaria viridis; assay: Test Example 5: herbicidal effect by foliage application, plastic box (symbol G); settings: 320 g/ha, 3 weeks after application
Summary of the method: (§4)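 Emulsion formulation, diluted with water to the intended rate, was applied uniformly to leaves by small sprayer. Recipients were 14-day greenhouse-grown seedlings (25° C. to 30° C.). Assessment followed at 3 weeks.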

[12] = test system: Echinochloa crus-galli var. crus-galli; assay: Test Example 5: herbicidal effect by foliage application, plastic box (symbol H); settings: 320 g/ha, 3 weeks after application
Summary of the method: as §4

[13] = test system: Avena fatua; assay: Test Example 5: herbicidal effect by foliage application, plastic box (symbol I); settings: 320 g/ha, 3 weeks after application
Summary of the method: as §4

[14] = test system: Apera spica-venti; assay: Test Example 5: herbicidal effect by foliage application, plastic box (symbol L); settings: 320 g/ha, 3 weeks after application
Summary of the method: as §4

[15] = test system: corn; assay: Test Example 5: effect on crop by foliage application, plastic box (symbol c); settings: 320 g/ha, 3 weeks after application
Summary of the method: (§5)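 Foliage-application test plants come from spot sowing in sterilized diluvial soil under a soil layer of about 1.5 cm, grown at 25° C. to 30° C. in a greenhouse.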

[16] = test system: rapeseed; assay: Test Example 5: effect on crop by foliage application, plastic box (symbol g); settings: 320 g/ha, 3 weeks after application
Summary of the method: as §5

SMILES | Herbicidal effect grade, A: Echinochloa oryzacola Vasing. [1] | Herbicidal effect grade, C: Monochoria vaginalis [2] | Herbicidal effect grade, C: Monochoria vaginalis [3] | Herbicidal effect grade, H: Echinochloa crus-galli var. crus-galli [4] | Herbicidal effect grade, I: Avena fatua [5] | Herbicidal effect grade, L: Apera spica-venti [6] | Herbicidal effect grade, M: Abutilon theophrasti [7] | Effect on crop grade, d: soybean [8] | Effect on crop grade, b: directly sowed rice plant [9] | Effect on crop grade, f: beet [10] | G: Setaria viridis, herbicidal effect (criteria of Test Example 1) [11] | H: Echinochloa crus-galli var. crus-galli, herbicidal effect (criteria of Test Example 1) [12] | I: Avena fatua, herbicidal effect (criteria of Test Example 1) [13] | L: Apera spica-venti, herbicidal effect (criteria of Test Example 1) [14] | c: corn, effect on crop (criteria of Test Example 1) [15] | g: rapeseed, effect on crop (criteria of Test Example 1) [16] | other results
CC(=O)C1CC(O)=C(c2c(C)cc(C)cc2C)C1=O (stereo not shown) [8-001] | 0 (Herbicidal ratio of 5% or lower (almost no effect)) | 0 (Herbicidal ratio of 5% or lower (almost no effect)) | 0 (Herbicidal ratio of 5% or lower (almost no effect)) | 0 (Herbicidal ratio of 5% or lower (almost no effect)) | 0 (Herbicidal ratio of 5% or lower (almost no effect)) | 0 (Herbicidal ratio of 5% or lower (almost no effect)) | 0 (Herbicidal ratio of 5% or lower (almost no effect)) | 0 (Herbicidal ratio of 5% or lower (almost no effect)) | 0 (Herbicidal ratio of 5% or lower (almost no effect)) | 0 (Herbicidal ratio of 5% or lower (almost no effect)) | – | – | – | – | – | – | G: Setaria viridis, herbicidal effect grade [11]: 1 (Herbicidal ratio of 5% or higher and lower than 20%); H: Echinochloa crus-galli var. crus-galli, herbicidal effect grade [12]: 1 (Herbicidal ratio of 5% or higher and lower than 20%); I: Avena fatua, herbicidal effect grade [13]: 0 (Herbicidal ratio of 5% or lower (almost no effect)); L: Apera spica-venti, herbicidal effect grade [14]: 0 (Herbicidal ratio of 5% or lower (almost no effect)); c: corn, effect on crop grade [15]: 0 (Herbicidal ratio of 5% or lower (almost no effect)); g: rapeseed, effect on crop grade [16]: 0 (Herbicidal ratio of 5% or lower (almost no effect))
CON=C(C)CC1CC(O)=C(c2c(C)cc(-c3ccccc3)cc2OC)C1=O (stereo not shown) [6-099] | 5 (Herbicidal ratio of 90% or more (almost completely withered)) | 5 (Herbicidal ratio of 90% or more (almost completely withered)) | 5 (Herbicidal ratio of 90% or more (almost completely withered)) | 5 (Herbicidal ratio of 90% or more (almost completely withered)) | 5 (Herbicidal ratio of 90% or more (almost completely withered)) | 5 (Herbicidal ratio of 90% or more (almost completely withered)) | 3 (Herbicidal ratio of 40% or higher and lower than 70%) | 0 (Herbicidal ratio of 5% or lower (almost no effect)) | 5 (Herbicidal ratio of 90% or more (almost completely withered)) | 2 (Herbicidal ratio of 20% or higher and lower than 40%) | 5 (Herbicidal ratio of 90% or more (almost completely withered)) | 5 (Herbicidal ratio of 90% or more (almost completely withered)) | 5 (Herbicidal ratio of 90% or more (almost completely withered)) | 5 (Herbicidal ratio of 90% or more (almost completely withered)) | 5 (Herbicidal ratio of 90% or more (almost completely withered)) | 5 (Herbicidal ratio of 90% or more (almost completely withered)) | –
CC(=O)CC1CC(O)=C(c2c(C)cc(Br)cc2C)C1=O (stereo not shown) [7-002] | 0 (Herbicidal ratio of 5% or lower (almost no effect)) | 0 (Herbicidal ratio of 5% or lower (almost no effect)) | 0 (Herbicidal ratio of 5% or lower (almost no effect)) | 5 (Herbicidal ratio of 90% or more (almost completely withered)) | 0 (Herbicidal ratio of 5% or lower (almost no effect)) | 5 (Herbicidal ratio of 90% or more (almost completely withered)) | 0 (Herbicidal ratio of 5% or lower (almost no effect)) | 0 (Herbicidal ratio of 5% or lower (almost no effect)) | 5 (Herbicidal ratio of 90% or more (almost completely withered)) | 0 (Herbicidal ratio of 5% or lower (almost no effect)) | 3 (Herbicidal ratio of 40% or higher and lower than 70%) | 5 (Herbicidal ratio of 90% or more (almost completely withered)) | 4 (Herbicidal ratio of 70% or higher and lower than 90%) | 3 (Herbicidal ratio of 40% or higher and lower than 70%) | 3 (Herbicidal ratio of 40% or higher and lower than 70%) | 0 (Herbicidal ratio of 5% or lower (almost no effect)) | –
CC(=O)CC1CC(O)=C(c2c(C)cc(OCC(F)(F)F)cc2C)C1=O (stereo not shown) [7-015] | 5 (Herbicidal ratio of 90% or more (almost completely withered)) | 2 (Herbicidal ratio of 20% or higher and lower than 40%) | 0 (Herbicidal ratio of 5% or lower (almost no effect)) | 5 (Herbicidal ratio of 90% or more (almost completely withered)) | 3 (Herbicidal ratio of 40% or higher and lower than 70%) | 4 (Herbicidal ratio of 70% or higher and lower than 90%) | 0 (Herbicidal ratio of 5% or lower (almost no effect)) | 0 (Herbicidal ratio of 5% or lower (almost no effect)) | 5 (Herbicidal ratio of 90% or more (almost completely withered)) | 0 (Herbicidal ratio of 5% or lower (almost no effect)) | 5 (Herbicidal ratio of 90% or more (almost completely withered)) | 5 (Herbicidal ratio of 90% or more (almost completely withered)) | 5 (Herbicidal ratio of 90% or more (almost completely withered)) | 5 (Herbicidal ratio of 90% or more (almost completely withered)) | 5 (Herbicidal ratio of 90% or more (almost completely withered)) | 5 (Herbicidal ratio of 90% or more (almost completely withered)) | –
